These results are taken from patent US8188134B2, “Thiophene-carboxamides useful as inhibitors of protein kinases” (Vertex Pharmaceuticals Incorporated, priority 2006, dated 2012).

This assay concerns the target T1, Plk1 (Homo sapiens, UniProt P53350).
T1 construct: in the presence of 15 nM Plk1 (A20-K338)
The assay is described as follows: Plk1 inhibition assay (radioactive-phosphate incorporation). In kind it is biochemical. Conditions: Ki(app). The procedure: The compounds of the present invention are evaluated as inhibitors of human PLK kinase using the following assays.
Compounds were screened for their ability to inhibit Plk1 using a radioactive-phosphate incorporation assay. Assays were carried out in a mixture of 25 mM HEPES (pH 7.5), 10 mM MgCl2, and 1 mM DTT. Final substrate concentrations were 50 μM [γ-33P]ATP (136 mCi 33P ATP/mmol ATP, Amersham Pharmacia Biotech/Sigma Chemicals) and 10 μM peptide (SAM68 protein Δ332-443). Assays were carried out at 25° C. in the presence of 15 nM Plk1 (A20-K338). An assay stock buffer solution was prepared containing all of the reagents listed above, with the exception of ATP and the test compound of interest. 30 μL of the stock solution was placed in a 96 well plate followed by addition of 2 μL of DMSO stock containing serial dilutions of the test compound (typically starting from a final concentration of 10 μM with 2-fold serial dilutions) in duplicate (final DMSO concentration 5%). The plate was pre-incubated for 10 minutes at 25° C. and the reaction initiated by addition of 8 μL [γ-33P]ATP (final concentration 50 μM). […]
After removing mean background values for all of the data points, Ki(app) data were calculated from non-linear regression analysis of the initial rate data using the Prism software package (GraphPad Prism version 3.0cx for Macintosh, GraphPad Software, San Diego Calif., USA). […]

T1 sequence (P53350 20-338): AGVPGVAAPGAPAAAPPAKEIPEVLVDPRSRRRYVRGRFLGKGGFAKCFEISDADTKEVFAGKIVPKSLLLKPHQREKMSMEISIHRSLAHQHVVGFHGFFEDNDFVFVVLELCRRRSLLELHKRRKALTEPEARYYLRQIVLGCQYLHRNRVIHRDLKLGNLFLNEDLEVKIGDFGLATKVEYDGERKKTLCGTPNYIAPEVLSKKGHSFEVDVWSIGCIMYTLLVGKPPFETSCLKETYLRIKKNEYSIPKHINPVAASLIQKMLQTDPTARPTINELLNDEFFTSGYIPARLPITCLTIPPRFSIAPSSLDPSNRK

Turning to `CC(Oc1cc(-n2ccnc2)sc1C(N)=O)c1ccccc1Cl` (centres unmarked) [I-1, 3-[1-(2-Chloro-phenyl)-ethoxy]-5-imidazol-1-yl-thiophene-2-carboxylic acid amide], the Ki (the text does not say which of the two Plk1 protocols was used) was 10 to 100 nM.
On to `CC(Oc1cc(-c2cc(N)n[nH]2)sc1C(N)=O)c1ccccc1Cl` (centres unmarked) [I-2, 5-(5-Amino-2H-pyrazol-3-yl)-3-[1-(2-chloro-phenyl)-ethoxy]-thiophene-2-carboxylic acid amide], for which, for the setting “lower bound in nM, upper bound in μM, protocol not specified”, the Ki fell in the range of 100 to 4000 nM.
